Reference: patent publication US20260132140A1, “IMIDAZOLYL-AMINO-PYRAZINE-CARBONITRILS AS CHK-1 INHIBITORS” (BenevolentAI Bio Limited, priority 2022, published 2026)

Tests used:
human Chk1 kinase = target: T1, human Chk1 kinase (Homo sapiens, UniProt O14757); test: biochemical
T1 sequence (O14757 1-476): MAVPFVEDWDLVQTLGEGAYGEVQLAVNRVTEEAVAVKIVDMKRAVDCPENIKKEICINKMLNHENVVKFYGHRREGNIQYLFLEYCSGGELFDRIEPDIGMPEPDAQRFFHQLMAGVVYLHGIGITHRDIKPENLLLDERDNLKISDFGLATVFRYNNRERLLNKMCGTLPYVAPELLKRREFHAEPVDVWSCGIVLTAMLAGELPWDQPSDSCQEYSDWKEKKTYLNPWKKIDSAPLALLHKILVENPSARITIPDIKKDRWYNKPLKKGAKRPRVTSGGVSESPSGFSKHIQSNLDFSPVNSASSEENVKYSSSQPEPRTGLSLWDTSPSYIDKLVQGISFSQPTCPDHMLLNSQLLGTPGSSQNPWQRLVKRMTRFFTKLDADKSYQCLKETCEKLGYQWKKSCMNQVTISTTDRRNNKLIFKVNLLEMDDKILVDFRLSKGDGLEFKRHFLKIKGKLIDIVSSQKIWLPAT

human Chk2 kinase = human Chk2 kinase (Homo sapiens, UniProt O96017); test: biochemical
GBM LN18 cells = test: In vitro cell viability assay (Cell Titre Glo, 72 hours); assay type: cell-based; settings: Homo sapiens, LN-18, read-out: LN18 pIC50 (converted)
Protocol: GBM LN18 cells were incubated with increasing concentrations of selected compounds of the invention for 72 hours prior to the measurement of ATP in metabolically viable cells with the Cell Titre® Glo Luminescent reagent. A 10-point concentration response curve up to a maximum concentration of 10 μM was tested.
The percent (%) effect i.e., inhibition at each concentration of compound was calculated based on, and relative to the amount of inhibition produced in the vehicle control and inhibited control wells contained within each plate.

Chain of human Chk2 kinase (O96017 whole entry): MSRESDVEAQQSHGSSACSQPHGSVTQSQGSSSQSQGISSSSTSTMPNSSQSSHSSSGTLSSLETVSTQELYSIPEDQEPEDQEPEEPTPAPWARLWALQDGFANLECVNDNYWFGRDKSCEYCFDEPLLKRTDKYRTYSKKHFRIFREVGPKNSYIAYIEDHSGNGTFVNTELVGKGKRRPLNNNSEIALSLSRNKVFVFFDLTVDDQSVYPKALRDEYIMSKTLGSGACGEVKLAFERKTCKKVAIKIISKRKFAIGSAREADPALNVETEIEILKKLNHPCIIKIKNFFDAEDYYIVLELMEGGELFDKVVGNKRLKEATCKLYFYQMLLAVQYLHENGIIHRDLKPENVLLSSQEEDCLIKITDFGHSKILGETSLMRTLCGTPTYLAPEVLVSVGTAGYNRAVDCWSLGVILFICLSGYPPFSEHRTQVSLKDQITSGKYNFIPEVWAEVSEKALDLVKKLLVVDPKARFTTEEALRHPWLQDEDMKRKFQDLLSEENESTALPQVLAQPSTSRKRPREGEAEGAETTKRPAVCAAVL

SMILES	IC50 (human Chk1 kinase) [nM]	IC50 (human Chk2 kinase) [µM]	IC50 (GBM LN18 cells) [nM]
CN1CC2(CCN(c3ccc(-n4cnc(Nc5cnc(C#N)cn5)c4)cc3)C2)C1 [Example 69, 5-((1-(4-(2-Methyl-2,6-diazaspiro[3.4]octan-6-yl)phenyl)-1H-imidazol-4-yl)amino)pyrazine-2-carbonitrile]	10 to 31.6	10 to 100	1000 to 10000
CN(C)[C@@H]1CCN(c2ccc(-n3cnc(Nc4cnc(C#N)cn4)c3)c(C(F)(F)F)c2)C1 [Example 71, (R)-5-((1-(4-(3-(Dimethylamino)pyrrolidin-1-yl)-2-(trifluoromethyl)phenyl)-1H-imidazol-4-yl)amino)pyrazine-2-carbonitrile]	100 to 316	> 100	< 1000
C[C@H]1C[C@@H](N(C)C)CN1c1ccc(-n2cnc(Nc3cnc(C#N)cn3)c2)cc1 [Example 75, 5-((1-(4-((2S,4R)-4-(Dimethylamino)-2-methylpyrrolidin-1-yl)phenyl)-1H-imidazol-4-yl)amino)pyrazine-2-carbonitrile]			< 1000
C[C@@H]1CN(c2ccc(-n3cnc(Nc4cnc(C#N)cn4)c3)cc2)C[C@@H]1N(C)C [Example 76, 5-((1-(4-((3R,4R)-3-(Dimethylamino)-4-methylpyrrolidin-1-yl)phenyl)-1H-imidazol-4-yl)amino)pyrazine-2-carbonitrile]	10 to 31.6	10 to 100	< 1000
CN(C)c1cc(N2CC[C@@H](N(C)C)C2)ccc1-n1cnc(Nc2cnc(C#N)cn2)c1 [Example 83, (R)-5-((1-(2-(Dimethylamino)-4-(3-(dimethylamino)pyrrolidin-1-yl)phenyl)-1H-imidazol-4-yl)amino)pyrazine-2-carbonitrile]	316 to 1000	10 to 100	1000 to 10000
CCN(C)[C@@H]1CCN(c2ccc(-n3cnc(Nc4cnc(C#N)cn4)c3)cc2)C1 [Example 89, (R)-5-((1-(4-(3-(Ethyl(methyl)amino)pyrrolidin-1-yl)phenyl)-1H-imidazol-4-yl)amino)pyrazine-2-carbonitrile]	< 10	1 to 10	< 1000
C[N+](C)([O-])[C@@H]1CCN(c2ccc(-n3cnc(Nc4cnc(C#N)cn4)c3)cc2)C1 [Example 141, (R)-1-(4-(4-((5-Cyanopyrazin-2-yl)amino)-1H-imidazol-1-yl)phenyl)-N,N-dimethylpyrrolidin-3-amine oxide]	100 to 316	10 to 100	1000 to 10000
N#Cc1cnc(Nc2cn(-c3ccc(OCCN)cc3)cn2)cn1 [Example 150, 5-((1-(4-(2-Aminoethoxy)phenyl)-1H-imidazol-4-yl)amino)pyrazine-2-carbonitrile]			1000 to 10000
CN1[C@@H]2COC[C@H]1CN(c1ccc(-n3cnc(Nc4cnc(C#N)cn4)c3)cc1)C2 [Example 177, 5-((1-(4-((1R,5S)-9-Methyl-3-oxa-7,9-diazabicyclo[3.3.1]nonan-7-yl)phenyl)-1H-imidazol-4-yl)amino)pyrazine-2-carbonitrile]	100 to 316	10 to 100	
CCN(CC)C1(c2ccc(-n3cnc(Nc4cnc(C#N)cn4)c3)cc2)CC1 [Example 179, 5-((1-(4-(1-(Diethylamino)cyclopropyl)phenyl)-1H-imidazol-4-yl)amino)pyrazine-2-carbonitrile]	100 to 316	> 100	
N#Cc1cnc(Nc2cn(-c3ccc(N4CCN(C5CC(F)(F)C5)CC4)cc3)cn2)cn1 [Example 181, 5-((1-(4-(4-(3,3-Difluorocyclobutyl)piperazin-1-yl)phenyl)-1H-imidazol-4-yl)amino)pyrazine-2-carbonitrile]	31.6 to 100	> 100	
N#Cc1cnc(Nc2cn(-c3ccc(N4CCN(C5COC5)CC4)cc3)cn2)cn1 [Example 182, 5-((1-(4-(4-(Oxetan-3-yl)piperazin-1-yl)phenyl)-1H-imidazol-4-yl)amino)pyrazine-2-carbonitrile]	31.6 to 100	10 to 100	
CC(C)N1CCN(c2ccc(-n3cnc(Nc4cnc(C#N)cn4)c3)cc2)CC1 [Example 186, 5-((1-(4-(4-Isopropylpiperazin-1-yl)phenyl)-1H-imidazol-4-yl)amino)pyrazine-2-carbonitrile]	100 to 316	> 100	

Second part, led by results:

IC50 (human Chk1 kinase) [nM]	IC50 (human Chk2 kinase) [µM]	SMILES	IC50 (GBM LN18 cells) [nM]
31.6 to 100	10 to 100	CN(C)[C@@H]1CCN(c2cnc(-n3cnc(Nc4cnc(C#N)cn4)c3)cn2)C1 [Example 52, (R)-5-((1-(5-(3-(Dimethylamino)pyrrolidin-1-yl)pyrazin-2-yl)-1H-imidazol-4-yl)amino)pyrazine-2-carbonitrile]	1000 to 10000
31.6 to 100	10 to 100	CN1C[C@@H]2CN(c3ccc(-n4cnc(Nc5cnc(C#N)cn5)c4)cc3)[C@@H]2C1 [Example 67, 5-((1-(4-((1R,5S)-3-Methyl-3,6-diazabicyclo[3.2.0]heptan-6-yl)phenyl)-1H-imidazol-4-yl)amino)pyrazine-2-carbonitrile]	< 1000
31.6 to 100	10 to 100	CN1C[C@H]2CN(c3ccc(-n4cnc(Nc5cnc(C#N)cn5)c4)cc3)[C@H]2C1 [Example 68, 5-((1-(4-((1S,5R)-3-Methyl-3,6-diazabicyclo[3.2.0]heptan-6-yl)phenyl)-1H-imidazol-4-yl)amino)pyrazine-2-carbonitrile]	< 1000
< 10	1 to 10	CN(C)[C@@H]1CCN(c2ccc(-n3cnc(Nc4cnc(C#N)cn4)c3)cc2F)C1 [Example 79, (R)-5-((1-(4-(3-(Dimethylamino)pyrrolidin-1-yl)-3-fluorophenyl)-1H-imidazol-4-yl)amino)pyrazine-2-carbonitrile]	< 1000
10 to 31.6	1 to 10	CCN(C)[C@@H]1CCN(c2ccc(-n3cnc(Nc4cnc(C#N)cn4)c3)nc2)C1 [Example 90, (R)-5-((1-(5-(3-(Ethyl(methyl)amino)pyrrolidin-1-yl)pyridin-2-yl)-1H-imidazol-4-yl)amino)pyrazine-2-carbonitrile]	< 1000
10 to 31.6	10 to 100	CC(C)N[C@@H]1CCN(c2ccc(-n3cnc(Nc4cnc(C#N)cn4)c3)cc2)C1 [Example 96, (R)-5-((1-(4-(3-(Isopropylamino)pyrrolidin-1-yl)phenyl)-1H-imidazol-4-yl)amino)pyrazine-2-carbonitrile]	< 1000
10 to 31.6	10 to 100	N#Cc1cnc(Nc2cn(-c3ccc(N4C[C@H](N)[C@@H](F)C4)cc3)cn2)cn1 [Example 152, 5-((1-(4-((3S,4S)-3-Amino-4-fluoropyrrolidin-1-yl)phenyl)-1H-imidazol-4-yl)amino)pyrazine-2-carbonitrile]	1000 to 10000
< 10	10 to 100	N#Cc1cnc(Nc2cn(-c3ccc(N4C[C@@H](F)[C@@H](N)C4)cc3)cn2)cn1 [Example 157, 5-((1-(4-((3S,4R)-3-Amino-4-fluoropyrrolidin-1-yl)phenyl)-1H-imidazol-4-yl)amino)pyrazine-2-carbonitrile]	1000 to 10000
10 to 31.6	10 to 100	N#Cc1cnc(Nc2cn(-c3ccc(N4CC(CN)C4)cc3)cn2)cn1 [Example 158, 5-((1-(4-(3-(Aminomethyl)azetidin-1-yl)phenyl)-1H-imidazol-4-yl)amino)pyrazine-2-carbonitrile]	1000 to 10000
31.6 to 100	10 to 100	COc1cc(CN2CCC(F)(F)CC2)ccc1-n1cnc(Nc2cnc(C#N)cn2)c1 [Example 172, 5-((1-(4-((4,4-Difluoropiperidin-1-yl)methyl)-2-methoxyphenyl)-1H-imidazol-4-yl)amino)pyrazine-2-carbonitrile]	
31.6 to 100	10 to 100	COc1cc(CN2CCOCC2)ccc1-n1cnc(Nc2cnc(C#N)cn2)c1 [Example 173, 5-((1-(2-Methoxy-4-(morpholinomethyl)phenyl)-1H-imidazol-4-yl)amino)pyrazine-2-carbonitrile]	
31.6 to 100	10 to 100	N#Cc1cnc(Nc2cn(-c3ccc(CN4CCC(F)CC4)cc3)cn2)cn1 [Example 174, 5-((1-(4-((4-Fluoropiperidin-1-yl)methyl)phenyl)-1H-imidazol-4-yl)amino)pyrazine-2-carbonitrile]	
31.6 to 100	10 to 100	CN1CC2(CC(Oc3cccc(-n4cnc(Nc5cnc(C#N)cn5)c4)c3)C2)C1 [Example 175, 5-((1-(3-((2-Methyl-2-azaspiro[3.3]heptan-6-yl)oxy)phenyl)-1H-imidazol-4-yl)amino)pyrazine-2-carbonitrile]	
31.6 to 100	10 to 100	CN1CC2(CC(Oc3ccc(-n4cnc(Nc5cnc(C#N)cn5)c4)cc3)C2)C1 [Example 178, 5-((1-(4-((2-Methyl-2-azaspiro[3.3]heptan-6-yl)oxy)phenyl)-1H-imidazol-4-yl)amino)pyrazine-2-carbonitrile]	
31.6 to 100	10 to 100	COc1cc(OC2CC3(C2)CN(C)C3)ccc1-n1cnc(Nc2cnc(C#N)cn2)c1 [Example 180, 5-((1-(2-Methoxy-4-((2-methyl-2-azaspiro[3.3]heptan-6-yl)oxy)phenyl)-1H-imidazol-4-yl)amino)pyrazine-2-carbonitrile]	
